#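 Grown in 96-well plates, cells were treated for 48 hours with each compound at five concentrations. Insufficient inhibition: endpoint recorded as highest concentration tested. GI50 is the concentration that inhibits growth by half.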 The source made the active and inactive calls. No stated cut-off is given here; in the data, active = GI50 up to about 1.1 µM and inactive = higher.
# Legend:
# Test in all cases: NCI tumour cell line growth inhibition, 48 h
# COLO 205 = system: COLO 205
# TK-10 = system: TK-10
# T47D = system: T47D
# SF-295 = system: SF-295
# UO-31 = system: UO-31
# SNB-75 = system: SNB-75
# HL-60 = system: HL-60
# MDA-N = system: MDA-N
# CCRF-CEM = system: CCRF-CEM
# HCT-15 = system: HCT-15
# MCF7 = system: MCF7
# EKVX = system: EKVX
# HT-29 = system: HT-29
# OVCAR-4 = system: OVCAR-4
# 786-0 = system: 786-0
# CAKI-1 = system: CAKI-1
# Malme-3M = system: Malme-3M
# SN12C = system: SN12C
# HCT-116 = system: HCT-116
# BT-549 = system: BT-549
SMILES,GI50 (COLO 205),GI50 (TK-10),GI50 (T47D),GI50 (SF-295),GI50 (UO-31),GI50 (SNB-75),GI50 (HL-60),GI50 (MDA-N),GI50 (CCRF-CEM),GI50 (HCT-15) [µM],GI50 (MCF7),GI50 (EKVX),GI50 (HT-29),GI50 (OVCAR-4),GI50 (786-0),GI50 (CAKI-1),GI50 (Malme-3M),GI50 (SN12C),GI50 (HCT-116),GI50 (BT-549)
COC(=O)N1CC2(CO)C3CC=C(C(=O)Nc4ccccc4Br)C2C1C3Br (stereo not drawn),> 50 µM (inactive),> 50 µM (inactive),> 50 µM (inactive),> 50 µM (inactive),> 50 µM (inactive),> 50 µM (inactive),> 50 µM (inactive),> 50 µM (inactive),> 50 µM (inactive),> 50,> 50 µM (inactive),> 50 µM (inactive),> 50 µM (inactive),> 50 µM (inactive),> 50 µM (inactive),> 50 µM (inactive),> 50 µM (inactive),–,–,–
CC1(C)CSCC(C)(C)C(=N/N)/C1=N\N,> 100 µM (inactive),> 100 µM (inactive),> 100 µM (inactive),> 100 µM (inactive),–,> 100 µM (inactive),> 100 µM (inactive),> 100 µM (inactive),–,> 100,> 100 µM (inactive),> 100 µM (inactive),> 100 µM (inactive),–,> 100 µM (inactive),> 100 µM (inactive),> 100 µM (inactive),> 100 µM (inactive),> 100 µM (inactive),–
O=C1O/C(=C\c2ccc(O)cc2)C(c2ccc(O)c(Cl)c2)=C1Cl,96.6 µM (inactive),54.8 µM (inactive),59.7 µM (inactive),39.4 µM (inactive),35.2 µM (inactive),70 µM (inactive),33 µM (inactive),23.5 µM (inactive),35.7 µM (inactive),50,16.6 µM (inactive),88.5 µM (inactive),53.2 µM (inactive),69 µM (inactive),50.2 µM (inactive),37.2 µM (inactive),24.5 µM (inactive),88.9 µM (inactive),–,–
CC(/C(=N/NC(=O)C(N)=O)c1c(Cl)ccc(Cl)c1O)C1(O)C(=O)Nc2ccccc21 (stereo not drawn),23.2 µM (inactive),46.9 µM (inactive),–,> 100 µM (inactive),38 µM (inactive),28.6 µM (inactive),26 µM (inactive),–,31.8 µM (inactive),34.1,–,43.3 µM (inactive),39.5 µM (inactive),29.6 µM (inactive),57 µM (inactive),42.1 µM (inactive),64.9 µM (inactive),70.3 µM (inactive),41 µM (inactive),–
O=c1c2cc(Br)ccc2nc(-c2ccccc2Cl)n1NCC1(O)OCC(O)C(O)C1O (stereo not drawn),> 100 µM (inactive),–,–,> 100 µM (inactive),> 100 µM (inactive),> 100 µM (inactive),33.6 µM (inactive),–,46.7 µM (inactive),> 100,–,> 100 µM (inactive),> 100 µM (inactive),60.7 µM (inactive),> 100 µM (inactive),> 100 µM (inactive),> 100 µM (inactive),> 100 µM (inactive),> 100 µM (inactive),–
C[C@H]1ON2CCC[C@@H]2[C@@H]1C(=O)N1C2CC3CCC2(CS1(=O)=O)C3(C)C (stereo partly drawn),> 100 µM (inactive),> 100 µM (inactive),> 100 µM (inactive),> 100 µM (inactive),–,> 100 µM (inactive),0.295 µM (active),> 100 µM (inactive),> 100 µM (inactive),> 100,> 100 µM (inactive),> 100 µM (inactive),> 100 µM (inactive),> 100 µM (inactive),> 100 µM (inactive),> 100 µM (inactive),> 100 µM (inactive),> 100 µM (inactive),> 100 µM (inactive),–
COc1cc(OC)c(C2CC=Cc3c(OC)cc(OC)c(OC)c32)cc1OC (stereo not drawn),> 100 µM (inactive),> 100 µM (inactive),–,> 100 µM (inactive),> 100 µM (inactive),> 100 µM (inactive),> 100 µM (inactive),–,> 100 µM (inactive),> 100,–,> 100 µM (inactive),> 100 µM (inactive),> 100 µM (inactive),> 100 µM (inactive),> 100 µM (inactive),> 100 µM (inactive),> 100 µM (inactive),> 100 µM (inactive),–
Cc1ccc(-n2nnc3c(NNc4ccccc4)n[nH]c(=O)c32)cc1,75 µM (inactive),28.1 µM (inactive),–,55.2 µM (inactive),–,36.6 µM (inactive),84.7 µM (inactive),–,92 µM (inactive),> 100,35.3 µM (inactive),80.7 µM (inactive),57.9 µM (inactive),36.9 µM (inactive),67.3 µM (inactive),> 100 µM (inactive),> 100 µM (inactive),> 100 µM (inactive),82.8 µM (inactive),73.3 µM (inactive)
